Test system: plants
Experiment: Test D pre-emergence, other plants of Tables D1 and D3
Type: in vivo
Conditions: preemergent, 20 DAA
Method: A formulation containing 50 g/L of the test chemical was prepared by dissolving the active ingredient in a mixture of organic solvents and emulsifier, details of which are provided in the table. This formulation was then mixed with a small, variable amount of acetone to aid dissolution, before addition of a 0.2% v/v aqueous solution of an adjuvant, as the aqueous diluent, to form an aqueous spray solution which contains a predetermined concentration of the active ingredient.
This aqueous spray solution was then sprayed onto plants including maize and wheat that had been seed treated with a herbicide safener, after one day's cultivation (for pre-emergence) or after about 12 days' cultivation (for post-emergence). The plants were grown from seeds sown in standard soil, placed in a glasshouse under controlled conditions (at 24/18° C. or 20/16° C., day/night; 16 h light; 65% humidity). After spray application the plants were then grown in a glasshouse under the same conditions and watered twice daily. After 15 d for post-emergence and 20 DAA for pre-emergence the test was evaluated (100=total damage to plant; 0=no damage to plant).

What does the source list for CCn1nc([C@H]2CN(C)C(=O)[C@@H]2C(=O)Nc2cccc(F)c2F)c2c(F)cccc21 [Compound 7]?
damage to plant (100=total damage to plant; 0=no damage to plant), ABUTH (rate 15): 0; damage to plant (100=total damage to plant; 0=no damage to plant), ABUTH (rate 30): 0; damage to plant (100=total damage to plant; 0=no damage to plant), ABUTH (rate 60): 0; damage to plant (100=total damage to plant; 0=no damage to plant), ABUTH (rate 130): 0; damage to plant (100=total damage to plant; 0=no damage to plant), ABUTH (rate 250): 0; damage to plant (100=total damage to plant; 0=no damage to plant), ABUTH (rate 500): 10; damage to plant (100=total damage to plant; 0=no damage to plant), AMARE (rate 15): 0; damage to plant (100=total damage to plant; 0=no damage to plant), AMARE (rate 30): 0; damage to plant (100=total damage to plant; 0=no damage to plant), AMARE (rate 60): 0; damage to plant (100=total damage to plant; 0=no damage to plant), AMARE (rate 130): 0; damage to plant (100=total damage to plant; 0=no damage to plant), AMARE (rate 250): 0; damage to plant (100=total damage to plant; 0=no damage to plant), AMARE (rate 500): 0; damage to plant (100=total damage to plant; 0=no damage to plant), BIDPI (rate 15): 0; damage to plant (100=total damage to plant; 0=no damage to plant), BIDPI (rate 30): 0; damage to plant (100=total damage to plant; 0=no damage to plant), BIDPI (rate 60): 0; damage to plant (100=total damage to plant; 0=no damage to plant), BIDPI (rate 130): 0; damage to plant (100=total damage to plant; 0=no damage to plant), BIDPI (rate 250): 0; damage to plant (100=total damage to plant; 0=no damage to plant), BIDPI (rate 500): 0; damage to plant (100=total damage to plant; 0=no damage to plant), BRAPL (rate 15): 0; damage to plant (100=total damage to plant; 0=no damage to plant), BRAPL (rate 30): 60; damage to plant (100=total damage to plant; 0=no damage to plant), BRAPL (rate 60): 80; damage to plant (100=total damage to plant; 0=no damage to plant), BRAPL (rate 130): 80; damage to plant (100=total damage to plant; 0=no damage to plant), BRAPL (rate 250): 90; damage to plant (100=total damage to plant; 0=no damage to plant), BRAPL (rate 500): 100; damage to plant (100=total damage to plant; 0=no damage to plant), CYPES (rate 15): 0; damage to plant (100=total damage to plant; 0=no damage to plant), CYPES (rate 30): 0; damage to plant (100=total damage to plant; 0=no damage to plant), CYPES (rate 60): 0; damage to plant (100=total damage to plant; 0=no damage to plant), CYPES (rate 130): 0; damage to plant (100=total damage to plant; 0=no damage to plant), CYPES (rate 250): 0; damage to plant (100=total damage to plant; 0=no damage to plant), CYPES (rate 500): 20; damage to plant (100=total damage to plant; 0=no damage to plant), DIGSA (rate 15): 0; damage to plant (100=total damage to plant; 0=no damage to plant), DIGSA (rate 30): 80; damage to plant (100=total damage to plant; 0=no damage to plant), DIGSA (rate 60): 90; damage to plant (100=total damage to plant; 0=no damage to plant), DIGSA (rate 130): 100; damage to plant (100=total damage to plant; 0=no damage to plant), DIGSA (rate 250): 100; damage to plant (100=total damage to plant; 0=no damage to plant), DIGSA (rate 500): 100; damage to plant (100=total damage to plant; 0=no damage to plant), ECHCG (rate 15): 0; damage to plant (100=total damage to plant; 0=no damage to plant), ECHCG (rate 30): 90; damage to plant (100=total damage to plant; 0=no damage to plant), ECHCG (rate 60): 90; damage to plant (100=total damage to plant; 0=no damage to plant), ECHCG (rate 130): 100; damage to plant (100=total damage to plant; 0=no damage to plant), ECHCG (rate 250): 100; damage to plant (100=total damage to plant; 0=no damage to plant), ECHCG (rate 500): 100; damage to plant (100=total damage to plant; 0=no damage to plant), ELEIN (rate 15): 0; damage to plant (100=total damage to plant; 0=no damage to plant), ELEIN (rate 30): 0; damage to plant (100=total damage to plant; 0=no damage to plant), ELEIN (rate 60): 10; damage to plant (100=total damage to plant; 0=no damage to plant), ELEIN (rate 130): 60; damage to plant (100=total damage to plant; 0=no damage to plant), ELEIN (rate 250): 50; damage to plant (100=total damage to plant; 0=no damage to plant), ELEIN (rate 500): 70; damage to plant (100=total damage to plant; 0=no damage to plant), EPHHL (rate 15): 0; damage to plant (100=total damage to plant; 0=no damage to plant), EPHHL (rate 30): 0; damage to plant (100=total damage to plant; 0=no damage to plant), EPHHL (rate 60): 0; damage to plant (100=total damage to plant; 0=no damage to plant), EPHHL (rate 250): 10; damage to plant (100=total damage to plant; 0=no damage to plant), EPHHL (rate 500): 40; damage to plant (100=total damage to plant; 0=no damage to plant), GLXMA (rate 15): 0; damage to plant (100=total damage to plant; 0=no damage to plant), GLXMA (rate 30): 0; damage to plant (100=total damage to plant; 0=no damage to plant), GLXMA (rate 60): 0; damage to plant (100=total damage to plant; 0=no damage to plant), GLXMA (rate 130): 0; damage to plant (100=total damage to plant; 0=no damage to plant), GLXMA (rate 250): 0; damage to plant (100=total damage to plant; 0=no damage to plant), GLXMA (rate 500): 0; damage to plant (100=total damage to plant; 0=no damage to plant), IPOHE (rate 15): 0; damage to plant (100=total damage to plant; 0=no damage to plant), IPOHE (rate 30): 0; damage to plant (100=total damage to plant; 0=no damage to plant), IPOHE (rate 60): 0; damage to plant (100=total damage to plant; 0=no damage to plant), IPOHE (rate 130): 0; damage to plant (100=total damage to plant; 0=no damage to plant), IPOHE (rate 250): 0; damage to plant (100=total damage to plant; 0=no damage to plant), IPOHE (rate 500): 0; damage to plant (100=total damage to plant; 0=no damage to plant), ORYSA (rate 15): 0; damage to plant (100=total damage to plant; 0=no damage to plant), ORYSA (rate 30): 0; damage to plant (100=total damage to plant; 0=no damage to plant), ORYSA (rate 60): 0; damage to plant (100=total damage to plant; 0=no damage to plant), ORYSA (rate 130): 0; damage to plant (100=total damage to plant; 0=no damage to plant), ORYSA (rate 250): 0; damage to plant (100=total damage to plant; 0=no damage to plant), ORYSA (rate 500): 0; damage to plant (100=total damage to plant; 0=no damage to plant), PANMI (rate 15): 0; damage to plant (100=total damage to plant; 0=no damage to plant), PANMI (rate 30): 0; damage to plant (100=total damage to plant; 0=no damage to plant), PANMI (rate 60): 0; damage to plant (100=total damage to plant; 0=no damage to plant), PANMI (rate 130): 0; damage to plant (100=total damage to plant; 0=no damage to plant), PANMI (rate 250): 0; damage to plant (100=total damage to plant; 0=no damage to plant), PANMI (rate 500): 20; damage to plant (100=total damage to plant; 0=no damage to plant), SETFA (rate 15): 0; damage to plant (100=total damage to plant; 0=no damage to plant), SETFA (rate 30): 80; damage to plant (100=total damage to plant; 0=no damage to plant), SETFA (rate 60): 80; damage to plant (100=total damage to plant; 0=no damage to plant), SETFA (rate 130): 90; damage to plant (100=total damage to plant; 0=no damage to plant), SETFA (rate 250): 90; damage to plant (100=total damage to plant; 0=no damage to plant), SETFA (rate 500): 100; damage to plant (100=total damage to plant; 0=no damage to plant), SIDSP (rate 15): 0; damage to plant (100=total damage to plant; 0=no damage to plant), SIDSP (rate 30): 0; damage to plant (100=total damage to plant; 0=no damage to plant), SIDSP (rate 60): 0; damage to plant (100=total damage to plant; 0=no damage to plant), SIDSP (rate 130): 0; damage to plant (100=total damage to plant; 0=no damage to plant), SIDSP (rate 250): 0; damage to plant (100=total damage to plant; 0=no damage to plant), SIDSP (rate 500): 10; damage to plant (100=total damage to plant; 0=no damage to plant), SORVU (rate 15): 0; damage to plant (100=total damage to plant; 0=no damage to plant), SORVU (rate 30): 0; damage to plant (100=total damage to plant; 0=no damage to plant), SORVU (rate 60): 0
